In data set [1] the test system is Staphylococcus aureus ATCC 6538. As to conditions: coated paper, 0.15% by weight of BKC; cited from earlier work.
Data set [2] deals with Escherichia coli ATCC 8739. The conditions noted are these: coated paper, 0.15% by weight of BKC; cited from earlier work.
The nature of data set [3]: small animal oral toxicity test. As to conditions: albino rat, aqueous solutions derived from concentrate (EPA/MRID). The class given is in vivo. The source says: Example 1 is a small animal oral toxicity test of 3-(tri-methoxysilyl)propyldimethyl octadecyl ammonium chloride in aqueous solutions derived from concentrate. The small animal was an albino rat (EPA/MRID.) The result acute oral LD50 at 12.27 g (grams) per kg (kilogram.) That is, the lethal dose in 50% of the test subjects 12.27 grams per kilogram of body weight. This translates to a 100 kg person ingesting 1.227 kg of the raw material (or 1723 liters) at one time. The monomer poses no ingestion hazard.

For the compound “N-Alkyl-N-benzyl-N,N-dimethylammonium chloride [BKC]”, the inhibition in data set [1] and in data set [2] was approximately 100% each time. Regarding `CCCCCCCCCCCCCCCCCC[N+](C)(C)CCC[Si](OC)(OC)OC.[Cl-]` [1-Octadecanaminium, N,N-dimethyl-N-[3-(trimethoxysilyl)propyl]-, chloride (1:1)], in data set [3], the “acute oral LD50” value was 12.27 g (grams) per kg (kilogram.).

The record behind these values is patent US20230097707A1, “METHODS AND ARTICLES FOR KEEPING FOOD FRESHER FOR LONGER AND SHELF-LIFE EXTENSION TO ENHANCE FOOD SECURITY AND SAFETY” (priority 2021, published 2023).
